Reference: patent US9044465B2, “Use of analgesic potentiating compounds to potentiate the analgesic properties of an analgesic compound” (priority 2008, dated 2015)

Key:
[1] = test system: patients with acute sore throat and pharyngitis; assay: Throat Soreness Scale (TSS), randomized double-blind placebo-controlled single-dose study; format: in vivo, human; conditions: single oral dose; for reduction in throat soreness (TSS) compared to placebo over 6 hours: 9 patients per group, vs placebo; for time from which TSS scores separated/differed from placebo: throat soreness difference at individual time points
Experimental: (§1) A total of 99 patients who met pre-specified inclusion and exclusion criteria, including moderate to severe throat pain intensity, as measured by a score≧7 on the Throat Soreness Scale (TSS), were admitted to the study.
(§2) There were 9 patients randomly assigned to each treatment group.
They were discharged home for hourly assessments up to 6 hours post-dose. Patients were allowed alternative analgesic medication at any time during the study.
(§3) The Throat Soreness Scale (TSS), Swollen Throat Scale (SwoTS), Difficulty Swallowing Scale (DSS), Difficulty Talking Scale (DTS), and other Quality-of-Pain Scales were completed at Baseline (immediately pre-treatment). Each of these measurement instruments is a 0-10 ordinal scale (see TEST PROTOCOL below).
(§4) After administration of the assigned study medication, patients completed (1) the Throat Soreness Scale, (2) the Swollen Throat Scale, (3) the Difficulty Swallowing Scale, and (4) the Improvement Assessment (IA) every 15 minutes up to 2 hours. Measurements on the Difficulty Talking Scale and the Quality-of-Pain Scales were obtained after these four assessments at 60 minutes and at 2 hours after treatment.
(§5) After these 2nd hour assessments, patients were discharged from the clinic with a Diary for entering responses on the Throat Soreness Scale, Swollen Throat Scale, Difficulty Swallowing Scale, Difficulty Talking Scale, and Improvement Assessment at 3, 4, 5, and 6 hours. After the 6 hour assessments, patients completed the Quality-of-Pain Scales.
The patient will be asked to evaluate his/her throat soreness using a 0-to-10 ordinal scale at Baseline as well as at 15, 30, 45, 60, 75, 90, 105 and 120 min and then hourly through 6 hours. The patient will be requested to swallow and instructed:
The primary endpoint variable is the Summed Difference in Throat Soreness at 6 hours, which is based on the Throat Soreness Scale. The patient will be asked to evaluate his/her throat soreness, using a 0-to-10 ordinal scale at baseline and at 15, 30, 45, 60, 75, 90, 105 minutes and 2, 3, 4, 5, and 6 hours. At each time point post-dose, a difference is calculated between the throat soreness at that time and the patient's baseline throat soreness. The time-weighted Summed Difference in Throat Soreness at each time point is calculated as the sum of the differences from baseline until that time point.

[2] = test system: patients with acute sore throat and pharyngitis; assay: Improvement Assessment (IA), same study; format: in vivo, human; conditions: single oral dose; for patients who achieved at least some improvement within 30 minutes (IA): first 30 minutes, placebo 1/9; for time from which IA scores separated/differed from placebo: improvement at individual time points; for patients who achieved at least 50% improvement over 6 hours (IA): over the 6-hour treatment period, placebo 2/9; for patients who achieved at least some improvement within 1 hour (IA): placebo 4/9
Excerpt: as §1, §2, §4, §5
The patient will grade the improvement of his/her throat at 15, 30, 45, 60, 75, 90, 105, and 120 minutes, and at 3, 4, 5, and 6 hours post dose using a 5-category transitional scale. The patient will be instructed:
“Considering how your throat felt before you took the study medicine, circle the response that best describes how your throat is now.”
• Grading • no improvement • some improvement • 50% improvement • definite improvement • 100% improvement Data from this scale will be transcribed onto the appropriate Summary Data CRFs. Definite Improvement Level (DIL)

[3] = test system: patients with acute sore throat and pharyngitis; assay: Definite Improvement Level (DIL), same study; conditions: single oral dose, placebo 11.1%; for patients who achieved their own Definite Improvement Level on the TSS: Throat Soreness Scale
Experimental: A randomized, double-blind, placebo-controlled single-dose study was performed. In order to be eligible for the study, patients were required to have a history of an acute sore throat and physical evidence of pharyngitis. A total of 99 patients who met pre-specified inclusion and exclusion criteria, including moderate to severe throat pain intensity, as measured by a score≧7 on the Throat Soreness Scale (TSS), were admitted to the study.
At this visit they were shown each baseline rating scale and asked to indicate which level represented “definite improvement” to them (Definite Improvement Level), the Diary was reviewed for completeness by the Study Nurse, and ongoing evaluation and treatment were provided, if necessary, per standard clinic procedures.
After the patient is shown his/her completed Baseline Throat Soreness Scale, the Study Nurse will point to the number which the patient marked at Baseline and instruct the patient:
“Starting at this level with your sore throat, at and below which number means definite improvement to you?”
Next, the Study Nurse will separately show the patient his/her Baseline Difficulty Swallowing Scale, Swollen Throat Scale, Difficulty Talking Scale, and each of the 10 Quality-of-Pain Scales, with the same instructions for each scale.
Analyses were performed on all 99 patients (“intent-to-treat analyses”). […] Definite Improvement Level comparisons were performed using Fisher's Exact Test. Correlations between each new rating scale and the TSS were performed using Spearman Rank Correlation.

[4] = test system: patients with acute sore throat and pharyngitis; assay: Difficulty Swallowing Scale (DSS), same study; format: in vivo, human; conditions: single oral dose, vs placebo
Excerpt: as §1, §2, §3, §4
(§6) After these 2nd hour assessments, patients were discharged from the clinic with a Diary for entering responses on the Throat Soreness Scale, Swollen Throat Scale, Difficulty Swallowing Scale, Difficulty Talking Scale, and Improvement Assessment at 3, 4, 5, and 6 hours. After the 6 hour assessments, patients completed the Quality-of-Pain Scales. […]

[5] = test system: patients with acute sore throat and pharyngitis; assay: Swollen Throat Scale (SwoTS), same study; format: in vivo, human; conditions: single oral dose, vs placebo
Excerpt: as §1, §2, §3, §4, §6

[6] = test system: patients with acute sore throat and pharyngitis; assay: Difficulty Talking Scale (DTS), same study; format: in vivo, human; conditions: single oral dose, vs placebo
Excerpt: as §1, §2, §3, §4, §6

[7] = test system: patients with acute sore throat and pharyngitis; assay: Throat Function Index (TFI: swallowing and talking), same study; format: in vivo, human; conditions: single oral dose, vs placebo
Excerpt: as §1, §2
**Difficulty Swallowing and Difficulty Talking comprise the 20-point Throat Function Index.

[8] = test system: patients with acute sore throat and pharyngitis; assay: Quality of Pain Index (QPI, 12 qualities of throat pain), same study; format: in vivo, human; conditions: single oral dose, vs placebo
Excerpt: as §1, §2, §4, §5
The patient will be instructed to swallow and instructed: […]

Structure (SMILES) | reduction in throat soreness (TSS) compared to placebo over 6 hours [1] | time from which TSS scores separated/differed from placebo [1] [min] | patients who achieved at least some improvement within 30 minutes (IA) [2] | time from which IA scores separated/differed from placebo [2] [min] | patients who achieved at least 50% improvement over 6 hours (IA) [2] | patients who achieved at least some improvement within 1 hour (IA) [2] | patients who achieved their own Definite Improvement Level on the TSS [3] [%] | patients who achieved their own Definite Improvement Level on the "It hurts" Quality-of-Pain Scale [3] [%] | patients who achieved their own Definite Improvement Level on the Difficulty Swallowing Scale [3] [%] | reduction in difficulty swallowing (DSS) compared with placebo over 6 hours [4] | reduction in throat swelling (SwoTS) compared with placebo over 6 hours [5] | reduction in difficulty talking (DTS) compared with placebo over 6 hours [6] | reduction in the TFI compared with placebo over 6 hours [7] | reduction in the QPI compared with placebo over 6 hours [8]
CC(C)Cc1ccc(C(C)C(=O)O)cc1 (centres unmarked) [ibuprofen] | trend | 30 | 6/9 | 30 | 4/9 | 9/9 | 44.4 | 33.3 | 44.4 | greater reduction in difficulty swallowing compared with placebo | – | – | – | –
Cc1ccc(-c2cc(C(F)(F)F)nn2-c2ccc(S(N)(=O)=O)cc2)cc1 [celecoxib] | – | 30 | 3/9 | 45 | 8/9 | 7/9 | 77.7 | 55.6 | 66.7 | – | – | – | – | –
CC(=O)Nc1ccc(O)cc1 [acetaminophen] | significantly greater reduction in throat soreness compared to placebo | 15 | 8/9 | 30 | 7/9 | 9/9 | 44.4 | 55.6 | 55.6 | significant difference | significantly differentiated from placebo | significant | significantly greater reduction in the TFI | significantly differentiated from placebo
COc1ccc2cc([C@H](C)C(=O)O)ccc2c1 [naproxen, naproxen sodium] | differentiated from placebo | 30 | 4/9 | 45 | 4/9 | 7/9 | 22.2 | 33.3 | 33.3 | – | – | – | – | –
